Results as given in PubChem BioAssay (NCI).
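Five concentrations, 48 hours, 96-well plates. TGI is the concentration that stops growth completely.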

Legend:
Assay in all cases: NCI anticancer screen, dose series, 48 h
TK-10 renal = system: TK-10 renal
SK-MEL-28 melanoma = system: SK-MEL-28 melanoma
KM12 colon = system: KM12 colon
ACHN renal = system: ACHN renal
LOX IMVI melanoma = system: LOX IMVI melanoma
CCRF-CEM leukemia = system: CCRF-CEM leukemia
SK-MEL-5 melanoma = system: SK-MEL-5 melanoma
NCI-H23 lung = system: NCI-H23 lung
COLO 205 colon = system: COLO 205 colon
HT29 colon = system: HT29 colon
M14 melanoma = system: M14 melanoma
PC-3 prostate = system: PC-3 prostate
MOLT-4 leukemia = system: MOLT-4 leukemia
HOP-62 NSCLC = system: HOP-62 NSCLC
NCI-H226 lung = system: NCI-H226 lung
UACC-257 melanoma = system: UACC-257 melanoma
U251 CNS = system: U251 CNS
SF-295 CNS = system: SF-295 CNS
K-562 leukemia = system: K-562 leukemia
MDA-MB-435 = system: MDA-MB-435
HCT-15 colon = system: HCT-15 colon
MDA-MB-231 breast = system: MDA-MB-231 breast
HOP-92 NSCLC = system: HOP-92 NSCLC
NCI-H460 lung = system: NCI-H460 lung
RXF 393 renal = system: RXF 393 renal
SW-620 colon = system: SW-620 colon
BT-549 breast = system: BT-549 breast
HS 578T breast = system: HS 578T breast
SK-OV-3 ovarian = system: SK-OV-3 ovarian
A498 renal = system: A498 renal
OVCAR-8 ovarian = system: OVCAR-8 ovarian
SNB-75 CNS = system: SNB-75 CNS
EKVX NSCLC = system: EKVX NSCLC
NCI/ADR-RES ovarian = system: NCI/ADR-RES ovarian
SF-268 CNS = system: SF-268 CNS
RPMI-8226 leukemia = system: RPMI-8226 leukemia
MCF7 breast = system: MCF7 breast
HL-60(TB) leukemia = system: HL-60(TB) leukemia
UO-31 renal = system: UO-31 renal
OVCAR-4 ovarian = system: OVCAR-4 ovarian
UACC-62 melanoma = system: UACC-62 melanoma
T-47D breast = system: T-47D breast
786-0 renal = system: 786-0 renal
SK-MEL-2 melanoma = system: SK-MEL-2 melanoma
IGROV1 ovarian = system: IGROV1 ovarian
SNB-19 CNS = system: SNB-19 CNS
HCC-2998 colon = system: HCC-2998 colon
SF-539 CNS = system: SF-539 CNS
SR leukemia = system: SR leukemia
DU-145 prostate = system: DU-145 prostate
CAKI-1 renal = system: CAKI-1 renal
HCT-116 colon = system: HCT-116 colon

Measured: TGI

NC(=O)c1c2c(n3ccccc13)C(=O)c1ccccc1C2=O
36.4 µM: NCI-H23 lung
93 µM: MDA-MB-231 breast
37 µM: SK-MEL-5 melanoma
82.5 µM: NCI-H460 lung
44 µM: MDA-MB-435
> 100 µM: all other assays above

O=c1[nH]c2ccc(C(F)(F)F)cc2nc1Cc1ccccc1
97.1 µM: M14 melanoma
62.6 µM: SK-MEL-2 melanoma
71.2 µM: NCI/ADR-RES ovarian
82.6 µM: HCC-2998 colon
68.7 µM: HT29 colon
71.3 µM: HS 578T breast
69.4 µM: BT-549 breast
46.5 µM: NCI-H23 lung
66.9 µM: A498 renal
61.6 µM: RXF 393 renal
81.3 µM: PC-3 prostate
60.2 µM: SK-MEL-5 melanoma
40.7 µM: COLO 205 colon
46 µM: MOLT-4 leukemia
87.6 µM: RPMI-8226 leukemia
88.4 µM: ACHN renal
50.7 µM: NCI-H226 lung
50.4 µM: HOP-92 NSCLC
> 100 µM: all other assays above
